Here are results for 10 molecules from ChEMBL document CHEMBL1141896, “Synthesis and structure-activity relationships of piperidinylpyrrolopyridine derivatives as potent and selective H1 antagonists” (Bioorg Med Chem Lett, 2005).

Some results are limits rather than exact numbers.

Experiment [1] is filed under the species Rattus norvegicus. The experiment is described as follows: Effective dose against Histamine-induced skin vascular permeability model in rat after 4 hr (n = 5). The experiment is classed as functional.
Another experiment has as its target Histamine H1 receptor (Cavia porcellus, UniProt P31389). The experiment is described as follows: Inhibitory concentration against histamine-H1 receptor.
Experiment [2] has as its target T1, Adrenergic receptor alpha-1 (Rattus norvegicus, UniProt P15823+P23944+P43140).
T1 sequence (P15823 whole entry): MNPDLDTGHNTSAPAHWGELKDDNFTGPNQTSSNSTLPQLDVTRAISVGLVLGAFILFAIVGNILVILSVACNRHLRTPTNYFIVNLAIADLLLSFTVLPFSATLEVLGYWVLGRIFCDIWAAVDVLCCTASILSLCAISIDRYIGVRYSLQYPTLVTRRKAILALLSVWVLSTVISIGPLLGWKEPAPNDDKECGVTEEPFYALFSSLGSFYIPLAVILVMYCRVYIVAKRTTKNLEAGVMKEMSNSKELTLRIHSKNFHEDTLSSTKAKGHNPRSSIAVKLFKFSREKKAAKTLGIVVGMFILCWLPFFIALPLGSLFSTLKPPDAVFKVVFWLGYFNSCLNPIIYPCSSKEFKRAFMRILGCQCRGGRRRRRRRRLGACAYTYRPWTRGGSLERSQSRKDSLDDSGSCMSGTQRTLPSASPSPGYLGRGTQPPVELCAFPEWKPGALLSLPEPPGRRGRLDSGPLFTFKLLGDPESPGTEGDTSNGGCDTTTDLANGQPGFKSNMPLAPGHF
T1 sequence (P23944 whole entry): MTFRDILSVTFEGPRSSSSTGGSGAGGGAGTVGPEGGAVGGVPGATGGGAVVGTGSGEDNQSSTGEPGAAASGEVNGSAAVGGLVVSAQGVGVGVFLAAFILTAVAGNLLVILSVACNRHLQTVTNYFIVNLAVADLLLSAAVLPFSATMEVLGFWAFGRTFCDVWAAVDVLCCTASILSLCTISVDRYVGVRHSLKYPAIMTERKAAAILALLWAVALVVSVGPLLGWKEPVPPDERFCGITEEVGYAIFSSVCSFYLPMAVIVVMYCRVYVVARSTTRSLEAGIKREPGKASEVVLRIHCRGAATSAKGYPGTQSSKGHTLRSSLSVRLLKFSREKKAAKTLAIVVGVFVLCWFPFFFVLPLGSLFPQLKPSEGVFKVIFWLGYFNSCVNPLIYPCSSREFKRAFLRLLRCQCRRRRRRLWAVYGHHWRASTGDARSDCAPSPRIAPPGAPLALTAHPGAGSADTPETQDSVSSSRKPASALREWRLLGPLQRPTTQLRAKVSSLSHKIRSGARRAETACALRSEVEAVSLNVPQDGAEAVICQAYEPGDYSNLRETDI
T1 sequence (P43140 whole entry): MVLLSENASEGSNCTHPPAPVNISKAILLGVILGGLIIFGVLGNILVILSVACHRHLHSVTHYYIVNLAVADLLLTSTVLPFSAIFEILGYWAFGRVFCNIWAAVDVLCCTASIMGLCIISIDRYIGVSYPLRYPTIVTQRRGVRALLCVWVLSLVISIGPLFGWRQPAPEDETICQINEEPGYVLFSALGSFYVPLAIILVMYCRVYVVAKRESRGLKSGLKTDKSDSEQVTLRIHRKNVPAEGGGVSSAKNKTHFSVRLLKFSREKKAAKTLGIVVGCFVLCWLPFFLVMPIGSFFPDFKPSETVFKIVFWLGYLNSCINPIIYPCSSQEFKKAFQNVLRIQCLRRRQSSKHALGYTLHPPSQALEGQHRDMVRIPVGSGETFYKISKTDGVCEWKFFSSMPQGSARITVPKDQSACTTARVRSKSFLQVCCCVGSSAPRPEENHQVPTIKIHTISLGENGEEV
The experiment is described as follows: Binding affinity towards Alpha-1 adrenergic receptor in rat brain using [3H]prazosin as radioligand. The experiment is classed as tissue-based.

The target of experiment [3] is Serotonin 2 (5-HT2) receptor (Homo sapiens, UniProt P41595+P28223+P28335). The experiment is described as follows: Inhibitory concentration against 5-hydroxytryptamine 2 receptor. It counts as protein assay.
The species named for experiment [4] is Rattus norvegicus. The experiment is described as follows: Effective dose against Histamine-induced skin vascular permeability model in rat after 8 hr (n = 5). The experiment is classed as functional.
Experiment [5] addresses Histamine H1 receptor (Mus musculus) (UniProt P70174). The experiment is described as follows: Ex vivo effective binding dose against histamine-H1 receptor (n = 3).
The test system of experiment [6] is Rattus norvegicus. The experiment is described as follows: Inhibition of Histamine-induced skin vascular permeability model in rat after 4 hr at 1 mg/Kg (n = 5). It counts as functional.

Chain of Histamine H1 receptor (P31389 whole entry): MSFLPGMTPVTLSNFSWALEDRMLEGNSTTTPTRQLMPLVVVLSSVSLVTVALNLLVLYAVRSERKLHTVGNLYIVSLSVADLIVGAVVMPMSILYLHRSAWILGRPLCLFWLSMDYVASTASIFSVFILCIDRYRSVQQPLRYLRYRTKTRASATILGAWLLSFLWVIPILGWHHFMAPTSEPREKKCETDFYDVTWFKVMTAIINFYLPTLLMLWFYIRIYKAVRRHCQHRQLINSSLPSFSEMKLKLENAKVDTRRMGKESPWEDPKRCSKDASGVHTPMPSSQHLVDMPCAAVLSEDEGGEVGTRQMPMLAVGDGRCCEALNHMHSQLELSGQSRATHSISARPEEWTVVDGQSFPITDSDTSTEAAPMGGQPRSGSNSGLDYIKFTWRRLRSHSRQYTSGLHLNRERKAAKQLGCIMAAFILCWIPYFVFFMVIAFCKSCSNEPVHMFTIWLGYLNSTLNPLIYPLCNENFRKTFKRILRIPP
Chain of Histamine H1 receptor (Mus musculus) (P70174 whole entry, looked up): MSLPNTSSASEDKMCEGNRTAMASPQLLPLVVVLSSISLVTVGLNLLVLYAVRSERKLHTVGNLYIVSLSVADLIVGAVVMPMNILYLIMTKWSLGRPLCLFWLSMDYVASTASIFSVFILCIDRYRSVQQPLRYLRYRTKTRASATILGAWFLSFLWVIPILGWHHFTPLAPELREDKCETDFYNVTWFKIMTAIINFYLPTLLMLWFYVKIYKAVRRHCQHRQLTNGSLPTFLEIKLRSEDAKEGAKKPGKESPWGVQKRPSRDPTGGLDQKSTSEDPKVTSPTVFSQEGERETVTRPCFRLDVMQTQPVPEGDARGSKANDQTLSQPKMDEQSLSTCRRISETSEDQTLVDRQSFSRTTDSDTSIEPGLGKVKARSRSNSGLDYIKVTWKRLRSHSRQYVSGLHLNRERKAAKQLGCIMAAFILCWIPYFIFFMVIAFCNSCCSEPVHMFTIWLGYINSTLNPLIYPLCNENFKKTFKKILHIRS

Broadly, the ED50 is the midpoint of the dose-response relation. Usually IC50 stands for the concentration that gives 50% inhibition. Low readings indicate greater potency in that assay, high ones weaker potency in that assay. For the molecule `O=C(O)c1cccc(CN2CCC(c3cn(Cc4ccoc4)c4ccccc34)CC2)c1`, the ED50 in the experiment filed under Rattus norvegicus [1] turned out to be 1 mg/kg. The results for the IC50 (against Histamine H1 receptor; in experiment [2]; in experiment [3]) were 560 nM, more than 10000 nM and 10000 nM, respectively.

Regarding `CCOCCn1cc(C2CCN(CCOc3ccccc3C=O)CC2)c2ccccc21`, the results for the ED50 (in the experiment listed under Rattus norvegicus [1]; in the experiment filed under Rattus norvegicus [4]; in experiment [5]) were 0.1 mg/kg, 0.22 mg/kg and 8 mg/kg, respectively. In addition, the IC50 stood at 86 nM on Histamine H1 receptor, 10000 nM in experiment [2] and 3272 nM in experiment [3].

Regarding `CCCCn1cc(C2CCN(Cc3ccc(OC)c(C(=O)O)c3)CC2)c2ccccc21`, the results for the ED50 (in the experiment listed under Rattus norvegicus [1]; in the experiment listed under Rattus norvegicus [4]; in experiment [5]) were 0.08 mg/kg, 0.13 mg/kg and 69 mg/kg, respectively. Besides, the IC50 on Histamine H1 receptor is 475 nM; in experiment [2], more than 10000 nM; in experiment [3], more than 10000 nM.

In the experiment filed under Rattus norvegicus [1], `CCCCn1cc(C2CCN(Cc3cccc(C(=O)O)c3)CC2)c2ccccc21` yielded an ED50 of 1 mg/kg. Moreover, the concentration for half-maximal inhibition (IC50) at Histamine H1 receptor was 275 nM; in experiment [2] it was more than 10000 nM; in experiment [3], more than 10000 nM.

In the case of `COc1ccc(CN2CCC(c3cn(Cc4ccc(Cl)s4)c4ccccc34)CC2)cc1C(=O)O`, the results for the ED50 (in the experiment filed under Rattus norvegicus [1]; in the experiment listed under Rattus norvegicus [4]; in experiment [5]) were 0.5 mg/kg, 0.7 mg/kg and 57 mg/kg, respectively. The IC50 at Histamine H1 receptor is 365 nM; in experiment [2], more than 10000 nM; in experiment [3], 10000 nM.

As to `CCOCCn1cc(C2CCN(Cc3ccc(OC)c(C(=O)O)c3)CC2)c2ccccc21`, the 50% effective dose (ED50) in the experiment listed under Rattus norvegicus [1] is 0.05 mg/kg; in experiment [5], 5.4 mg/kg. Further, the IC50 is 690 nM at Histamine H1 receptor, more than 10000 nM in experiment [2] and 10000 nM in experiment [3].

As to `CCOCCn1cc(C2CCN(Cc3cccc(C(=O)O)c3)CC2)c2ccccc21`, the ED50 in the experiment listed under Rattus norvegicus [1] came to 0.07 mg/kg; in the experiment filed under Rattus norvegicus [4] it was 0.45 mg/kg; in experiment [5], 16 mg/kg. In addition, the half-maximal inhibitory concentration (IC50) was 403 nM against Histamine H1 receptor, more than 10000 nM in experiment [2] and 4950 nM in experiment [3].

In general, inhibition in vivo refers to the drop in the measured response relative to a control, in per cent. Lower therefore signals a weak effect. Consider `O=C(O)c1cccc(CN2CCC(c3cn(Cc4ccc(Cl)s4)c4ccccc34)CC2)c1`, for which the half-maximal inhibitory concentration (IC50) on Histamine H1 receptor is 330 nM; in experiment [2] it was more than 10000 nM; in experiment [3] it was more than 10000 nM. This molecule displayed an inhibition in vivo at 1 mg/kg in the experiment with Rattus norvegicus [6] of 7%.

`CCOCCn1cc(C2CCN(CCOc3ccccc3C(=O)O)CC2)c2ccccc21`: the ED50 in the experiment filed under Rattus norvegicus [1] was 0.08 mg/kg; in the experiment listed under Rattus norvegicus [4], 0.02 mg/kg; in experiment [5] it was 34 mg/kg. Also, the half-maximal inhibitory concentration (IC50) was 190 nM against Histamine H1 receptor, more than 10000 nM in experiment [2] and more than 10000 nM in experiment [3].

Take `COc1ccc(CN2CCC(c3cn(Cc4ccoc4)c4ccccc34)CC2)cc1C(=O)O`: the median effective dose (ED50) was found to be 0.2 mg/kg in the experiment listed under Rattus norvegicus [1], 0.2 mg/kg in the experiment filed under Rattus norvegicus [4] and 15 mg/kg in experiment [5]. The 50% inhibitory concentration (IC50) at Histamine H1 receptor is 205 nM; in experiment [2] it was more than 10000 nM; in experiment [3] it was 10000 nM.
